Patent US7754864B2, “Tyrosinase activity controlling agent, process for producing the same and external preparation containing the same” (National Institute of Advanced Industrial Science and …, priority 2002, dated 2010)

How the values were obtained:
[1] = test system: tyrosinase (derived from mushroom, SIGMA); assay: Tyrosinase inhibitory activity using proline, pyrocatechol as substrate; assay type: biochemical; settings: pyrocatechol (catechol) as substrate, absorbance 525 nm
[2] = test system: tyrosinase (derived from mushroom, SIGMA); assay: Tyrosinase inhibitory activity using proline, phenol as substrate; assay type: biochemical; settings: for tyrosinase inhibitory activity: phenol as substrate, absorbance 525 nm
Method: The tyrosinase inhibitory activity of an undecylenic acid sugar ester was determined using phenol as a substrate, by a modification of the method using pyrocatechol.

[3] = test system: tyrosinase (derived from mushroom, SIGMA); assay: Tyrosinase activation promoting effect, phenol as substrate in the presence of proline; assay type: biochemical; settings: FIG. 10
Method: Ascorbic acid and ascorbic acid derivatives were used as test substances for measuring tyrosinase activation promoting effects, using phenol as a substrate in the presence of proline.
Phenol is hydroxylated by tyrosinase, and at that time requires a hydrogen donor. The produced pyrocatechol is oxidized by tyrosinase to form an orthoquinone. The orthoquinone formed is quantitated in the presence of proline, to determine the tyrosinase activity.
Specifically, the measurement was carried out as follows. Forty microliters of 0.749 M L-proline dissolved in 0.1 M phosphate buffer at pH 7.5, 40 μl of 0.037 M phenol, and 1.41 ml of one of test substance solutions at various concentrations were stirred in a cuvette for absorbance measurement. A solution (10 μl) of 350 μg/ml of tyrosinase (derived from mushroom, SIGMA) was added, and the absorbance change was measured with stirring for 15 minutes at 525 nm, to determine the tyrosinase activity. […]

Mouse melanoma B16 cells = assay: Evaluation of melanogenesis inhibitory effect using mouse melanoma cells; assay type: cell-based; settings: melanin production per cell, FIG. 4
Method: Mouse melanoma B16 cells (3.6×10^5) were added to a 75 cm^2 culture flask containing 15 ml of D-MEM culture medium supplemented with 10% FCS, and incubated overnight at 37° C. under 5% carbon dioxide gas to adhere the cells. The culture medium was changed to 15 ml of 10% FCS-supplemented D-MEM culture medium containing one of 0.1% DMSO solutions of arbutin or 6-O-(10-undecylenoyl) arbutin obtained in Example 1-1 at various concentrations. The incubation was continued for two more days under the same conditions. The culture medium was again changed to 15 ml of the 0.1% DMSO solution-containing culture medium, and incubation was continued for two more days under the same conditions. After incubation, the cells were recovered, and the wet weight of the cells was measured. After the wet weight measurement, pellets of the cells were suspended in MilliQ water to a total volume of 700 μl. […] The absorbance (405 nm) was then measured. […] The melanin production per cell was indicated as absorbance at 405 nm/cell wet weight (μg). The melanogenesis inhibitory effects of arbutin undecylenate or arbutin at each concentration was determined, with the melanin production per cell without addition of arbutin or arbutin undecylenate being taken as 100%.

`OC[C@H]1O[C@@H](Oc2ccc(O)cc2)[C@H](O)[C@@H](O)[C@@H]1O` [Arbutin] was tested, and the tyrosinase inhibitory activity [1] was “inhibit tyrosinase activity”, the tyrosinase inhibitory activity [2] was “inhibit tyrosinase activity” and the “tyrosinase inhibitory activity, phenol substrate compared with catechol substrate” value ([2]; phenol vs catechol substrate, FIG. 6) was “higher inhibitory activity against a phenol substrate than against a catechol substrate”.
In the case of `CCCCCCCCCCCCCCCC(=O)OCC(O)C1OC(=O)C(O)=C1O` (stereo not shown) [Ascorbic acid palmitic ester, ascorbic acid-6-palmitate], the “concentrations exhibiting tyrosinase activity promoting effects” value [3] is reported as ≤ 10^−4 M.
In the case of `C=CCCCCCCCCC(=O)O` [Undecylenic acid], the tyrosinase inhibitory activity [1] is reported as “inhibit tyrosinase activity”.
`C=CCCCCCCCCC(=O)OC[C@H]1O[C@@H](Oc2ccc(O)cc2)[C@H](O)[C@@H](O)[C@@H]1O` [arbutin undecylenate, 6-O-(10-undecylenoyl)arbutin] was tested, and the “melanogenesis inhibitory effect relative to arbutin” value (Mouse melanoma B16 cells) was “about 100 times”.
In the case of `O=C1O[C@H]([C@@H](O)CO)C(O)=C1O` [ascorbic acid, L-ascorbic acid], the “concentrations exhibiting tyrosinase activity promoting effects” value [3] is reported as ≤ 10^−4 M.
For Sucrose undecylenic acid ester, the tyrosinase inhibitory activity [1] was “inhibit tyrosinase activity” and the tyrosinase inhibitory activity [2] was “inhibit tyrosinase activity”.
For Trehalose diundecylenic acid ester, the tyrosinase inhibitory activity [1] was “not inhibit tyrosinase activity”.
In the case of Trehalose oleate, the tyrosinase inhibitory activity [2] is reported as “not inhibit tyrosinase activity”.
trehalose undecylenic acid ester was tested, and the tyrosinase inhibitory activity [1] was “inhibition of tyrosinase” and the tyrosinase inhibitory activity [2] was “tyrosinase was inhibited”.
